Measurements published in patent US11267811B2, “Small molecule inhibitors of galectin-3” (BRISTOL-MYERS SQUIBB COMPANY, priority 2017, dated 2022).

Target: His-tagged recombinant human Gal-3 (hGal-3) (Homo sapiens (Human), UniProt P17931)
Experiment: Gal-3 HTRF assay (His-tagged hGal-3 binding to B-ASF);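 note: compounds preincubated 30 min with hGal-3, then 1 h with B-ASF, detection via terbium anti-His antibody and streptavidin d2. Control with B-ASF counts as full signal, omitting B-ASF as background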
Conditions: HTRF, hGal-3 15 nM, B-ASF 15 nM; read-out: hGal-3 IC50

His-tagged recombinant human Gal-3 (hGal-3), sequence (P17931 whole entry): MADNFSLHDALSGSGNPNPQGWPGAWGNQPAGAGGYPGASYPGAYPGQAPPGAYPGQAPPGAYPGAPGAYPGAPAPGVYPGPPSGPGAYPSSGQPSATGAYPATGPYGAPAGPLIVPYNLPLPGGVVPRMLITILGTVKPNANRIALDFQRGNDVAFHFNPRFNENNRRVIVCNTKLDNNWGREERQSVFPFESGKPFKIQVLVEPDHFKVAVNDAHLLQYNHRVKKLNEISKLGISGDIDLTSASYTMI

Structure (SMILES)	IC50 [nM]
Cc1nc([C@@H]2O[C@H](CO)[C@H](O)[C@H](n3cc(-c4cc(F)c(F)c(F)c4)nn3)[C@H]2O)n(-c2ccc3nc(C)sc3c2)n1 [Example 57, (2R,3R,4R,5R,6S)-2-(hydroxymethyl)-6-(3-methyl-1-(2-methylbenzo[d]thiazol-6-yl)-1H-1,2,4-triazol-5-yl)-4-(4-(3,4,5-trifluorophenyl)-1H-1,2,3-triazol-1-yl)tetrahydro-2H-pyran-3,5-diol]	50
Cc1nc([C@@H]2O[C@H](CO)[C@H](O)[C@H](n3cc(-c4cc(F)c(F)c(F)c4)nn3)[C@H]2O)n(-c2ccc3ncn(C)c3c2)n1 [Example 59]	140
Cc1nc([C@@H]2O[C@H](CO)[C@H](O)[C@H](n3cc(-c4cc(F)c(F)c(F)c4)nn3)[C@H]2O)n(-c2ccc(Cl)cc2C)n1 [Example 63]	850
Cc1nc([C@@H]2O[C@H](CO)[C@H](O)[C@H](n3cc(-c4cc(F)c(F)c(F)c4)nn3)[C@H]2O)n(-c2cc(Cl)ccc2C#N)n1 [Example 64]	90
Cc1nc([C@@H]2O[C@H](CO)[C@H](O)[C@H](n3cc(-c4cc(F)c(F)c(F)c4)nn3)[C@H]2O)n(-c2cncc(Cl)c2)n1 [Example 65]	220
Cc1nc([C@@H]2O[C@H](CO)[C@H](O)[C@H](n3cc(-c4cc(F)c(F)c(F)c4)nn3)[C@H]2O)n(-c2nc3ccnn3cc2F)n1 [Example 66]	3840
Cc1nc([C@@H]2O[C@H](CO)[C@H](O)[C@H](n3cc(-c4cc(F)c(F)c(F)c4)nn3)[C@H]2O)n(-c2cc(Cl)cc(C(F)(F)F)c2)n1 [Example 67]	130
Cc1nc([C@@H]2O[C@H](CO)[C@H](O)[C@H](n3cc(-c4cc(F)c(F)c(F)c4)nn3)[C@H]2O)n(-c2cc(Cl)c(Cl)cc2C)n1 [Example 69]	60
Cc1nc([C@@H]2O[C@H](CO)[C@H](O)[C@H](n3cc(-c4cc(F)c(F)c(F)c4)nn3)[C@H]2O)n(-c2cc(C(F)(F)F)ccc2Cl)n1 [Example 70]	50
Cc1nc([C@@H]2O[C@H](CO)[C@H](O)[C@H](n3cc(-c4cc(F)c(F)c(F)c4)nn3)[C@H]2O)n(-c2cc(F)ccc2C(F)(F)F)n1 [Example 71]	90
CCc1ccc(Cl)cc1-n1nc(C)nc1[C@@H]1O[C@H](CO)[C@H](O)[C@H](n2cc(-c3cc(F)c(F)c(F)c3)nn2)[C@H]1O [Example 72]	20
OC[C@H]1O[C@@H](c2nncn2-c2ccccc2)[C@H](O)[C@@H](n2cc(-c3cc(F)c(F)c(F)c3)nn2)[C@H]1O [Example 73, (2R,3R,4R,5R,6S)-2-(hydroxymethyl)-6-(4-phenyl-4H-1,2,4-triazol-3-yl)-4-(4-(3,4,5-trifluorophenyl)-1H-1,2,3-triazol-1-yl)tetrahydro-2H-pyran-3,5-diol]	210
COc1ccc(Cl)cc1-n1cnnc1[C@@H]1O[C@H](CO)[C@H](O)[C@H](n2cc(-c3cc(F)c(F)c(F)c3)nn2)[C@H]1O [Example 74]	110
OC[C@H]1O[C@@H](c2nncn2-c2ccc(Cl)cc2)[C@H](O)[C@@H](n2cc(-c3cc(F)c(F)c(F)c3)nn2)[C@H]1O [Example 75]	330
OC[C@H]1O[C@@H](c2nncn2-c2ccc3c(c2)OCO3)[C@H](O)[C@@H](n2cc(-c3cc(F)c(F)c(F)c3)nn2)[C@H]1O [Example 76]	120
Cc1ccc(-n2cnnc2[C@@H]2O[C@H](CO)[C@H](O)[C@H](n3cc(-c4cc(F)c(F)c(F)c4)nn3)[C@H]2O)cc1C [Example 77]	140
OC[C@H]1O[C@@H](c2nncn2-c2cccc(Oc3ccccc3)c2)[C@H](O)[C@@H](n2cc(-c3cc(F)c(F)c(F)c3)nn2)[C@H]1O [Example 78]	830
COc1ccc(-n2cnnc2[C@@H]2O[C@H](CO)[C@H](O)[C@H](n3cc(-c4cc(F)c(F)c(F)c4)nn3)[C@H]2O)cc1OC [Example 79]	170
OC[C@H]1O[C@@H](c2nncn2-c2cccc(C(F)(F)F)c2)[C@H](O)[C@@H](n2cc(-c3cc(F)c(F)c(F)c3)nn2)[C@H]1O [Example 80]	330
OC[C@H]1O[C@@H](c2nncn2-c2ccc(-c3cnco3)cc2)[C@H](O)[C@@H](n2cc(-c3cc(F)c(F)c(F)c3)nn2)[C@H]1O [Example 82]	580
OC[C@H]1O[C@@H](c2nncn2-c2ccc(Cl)cc2Cl)[C@H](O)[C@@H](n2cc(-c3cc(F)c(F)c(F)c3)nn2)[C@H]1O [Example 83]	900
CC(=O)Nc1cccc(-n2cnnc2[C@@H]2O[C@H](CO)[C@H](O)[C@H](n3cc(-c4cc(F)c(F)c(F)c4)nn3)[C@H]2O)c1 [Example 84]	900

Now from value to molecule:

IC50 [nM]	Structure (SMILES)
440	OC[C@H]1O[C@@H](c2nncn2-c2ccc(F)cc2)[C@H](O)[C@@H](n2cc(-c3cc(F)c(F)c(F)c3)nn2)[C@H]1O [Example 85]
380	COc1ccccc1-n1cnnc1[C@@H]1O[C@H](CO)[C@H](O)[C@H](n2cc(-c3cc(F)c(F)c(F)c3)nn2)[C@H]1O [Example 86]
100	OC[C@H]1O[C@@H](c2nncn2-c2ccc(Cl)c(C(F)(F)F)c2)[C@H](O)[C@@H](n2cc(-c3cc(F)c(F)c(F)c3)nn2)[C@H]1O [Example 87]
360	OC[C@H]1O[C@@H](c2nncn2-c2ccc(Br)cc2)[C@H](O)[C@@H](n2cc(-c3cc(F)c(F)c(F)c3)nn2)[C@H]1O [Example 88]
460	OC[C@H]1O[C@@H](c2nncn2-c2ccccc2Cl)[C@H](O)[C@@H](n2cc(-c3cc(F)c(F)c(F)c3)nn2)[C@H]1O [Example 89]
520	OC[C@H]1O[C@@H](c2nncn2-c2ccc(Cc3ccncc3)cc2)[C@H](O)[C@@H](n2cc(-c3cc(F)c(F)c(F)c3)nn2)[C@H]1O [Example 90]
690	CN(C)c1ccc(-n2cnnc2[C@@H]2O[C@H](CO)[C@H](O)[C@H](n3cc(-c4cc(F)c(F)c(F)c4)nn3)[C@H]2O)cc1 [Example 91]
190	OC[C@H]1O[C@@H](c2nncn2-c2cccc(OC(F)(F)F)c2)[C@H](O)[C@@H](n2cc(-c3cc(F)c(F)c(F)c3)nn2)[C@H]1O [Example 93]
1130	OC[C@H]1O[C@@H](c2nncn2-c2ccc(OC(F)(F)F)cc2)[C@H](O)[C@@H](n2cc(-c3cc(F)c(F)c(F)c3)nn2)[C@H]1O [Example 94]
130	OC[C@H]1O[C@@H](c2nncn2-c2ccc3ccccc3c2)[C@H](O)[C@@H](n2cc(-c3cc(F)c(F)c(F)c3)nn2)[C@H]1O [Example 95]
290	OC[C@H]1O[C@@H](c2nncn2-c2ccc3c(c2)OCCO3)[C@H](O)[C@@H](n2cc(-c3cc(F)c(F)c(F)c3)nn2)[C@H]1O [Example 96]
350	OC[C@H]1O[C@@H](c2nncn2-c2ccccc2F)[C@H](O)[C@@H](n2cc(-c3cc(F)c(F)c(F)c3)nn2)[C@H]1O [Example 97]
450	COc1ccc(-n2cnnc2[C@@H]2O[C@H](CO)[C@H](O)[C@H](n3cc(-c4cc(F)c(F)c(F)c4)nn3)[C@H]2O)cc1 [Example 98]
890	O=S1(=O)Cc2ccc(-n3cnnc3[C@@H]3O[C@H](CO)[C@H](O)[C@H](n4cc(-c5cc(F)c(F)c(F)c5)nn4)[C@H]3O)cc2C1 [Example 99]
470	OC[C@H]1O[C@@H](c2nncn2-c2cccc(-c3ccccc3)c2)[C@H](O)[C@@H](n2cc(-c3cc(F)c(F)c(F)c3)nn2)[C@H]1O [Example 100]
80	OC[C@H]1O[C@@H](c2nncn2-c2cc(Cl)cc(Cl)c2)[C@H](O)[C@@H](n2cc(-c3cc(F)c(F)c(F)c3)nn2)[C@H]1O [Example 101]
